Source: patent US20240325489A1, “CONNEXIN 43 FOR USE IN THE TREATMENT OF RETINOBLASTOMA PROTEIN POSITIVE TUMOURS” (FUNDACIÓN PROFESOR NOVOA SANTOS, priority 2021, published 2024)
Entries after “also recorded” stand apart in the source; their conditions may differ.

Legend:
[1] = test system: HT29 colon adenocarcinoma cells; assay: Proliferation of colon cells (colony formation); format: cell-based; settings: HT29 Cx43 vs EV, 7 days, 250 nM Palbociclib, 500 nM Abemaciclib and Ribociclib
Protocol: (§1) Cell lines (A375 and HT29) were transfected by electroporation to overexpress Cx43. The Amaxa® Cell Line Nucleofector® Kit V (Lonza) was used to transfect cells in a Cell Line Nucleofector™ Device (Lonza). A million cells were harvested and resuspended in 100 μL of Nucleofector® solution. 3 μg of the corresponding plasmid was added, and the mixture was transferred into an electroporation cuvette using the U-28 program. Cell lines were transfected with pIRESpuro2 plasmid construct (Clontech) containing the human Cx43 sequence, kindly donated by Arantxa Tabernero (Institute of Neuroscience of Castilla y León, University of Salamanca, Spain). The transfected cells were seeded in culture medium and 24 hours (h) post-transfection the medium was replaced with complete medium containing puromycin dihydrochloride (Tocris, Bioscience) at different concentrations depending of the cell line (0.5 μg/mL to 2 μg/mL). […]
(§2) Colony formation assays were performed plating 5×10^3 to 5×10^4 cells per well onto 6-12 well plates and grown for 7-15 days. […] The colonies were quantified by diluting crystal violet in 30% acetic acid and 100 μL of the solution was collected to measure the absorbance at 570 nm using a NanoQuant microplate reader Infinite M200 (TECAN).

T47D cells [2] = assay: Colony formation assay; format: cell-based; settings: 7 days treatment
Protocol: (§3) Cells were treated with 250 nM of Palbociclib (PD0332991) (APExBIO), 500 nM Abemaciclib (LY2835219) (Selleckchem) or 500 nM Ribociclib (LEE011) (Selleckchem) for 7 days. All treatments were done using DMEM supplemented with 10% FBS and 100 U/mL penicillin and 100 μg/ml streptomycin. Media was replaced every 2 days.
(§4) Colony formation assays were performed plating 5×10^3 to 5×10^4 cells per well onto 6-12 well plates and grown for 7-15 days. Medium was replaced every 48 h. The cells were washed with warm Saline Solution and fixed with cold 4% PFA for 15 min. Cells were washed with PBS and stained with 0.05% of crystal violet (Sigma-Aldrich) for 15 min. After staining, the cells were washed with distilled water and dried at room temperature. The colonies were quantified by diluting crystal violet in 30% acetic acid and 100 μL of the solution was collected to measure the absorbance at 570 nm using a NanoQuant microplate reader Infinite M200 (TECAN).
HEK 293T cells were seeded onto 162 cm^2 culture flasks (Corning, Sigma-Aldrich) until confluence (80%-90%). Cells were washed three times with PBS and cultured for 48 h in DMEM 0% FBS. Supernatants were collected and centrifuged at 1800 rpm for 5 min. Pellet was discarded and supernatants were filtered through a 0.22 μm filter and then the filtered supernatants were centrifuged at 100,000 g for 90 min at 4° C. […]

MCF7 cells [3] = assay: Colony formation assay; format: cell-based, human; settings: for reduction in cell proliferation: FIG. 3c, MCF7, 500 nM Palbociclib 7 days, compared with untreated control
Protocol: (§5) Retroviral infection was used to overexpress Cx43 in MCF7 cells. Retroviral particles were generated by transfecting pLPCX-Cx43 and pLPCX-EV plasmids, kindly donated by Dr. Trond Aasen, and retroviral helper plasmids (vsvg and gag-pol) with Polyethylenimine (PEI) in HEK293T packaging cells for 48 h. The supernatant was then filtered with 0.45 μm filters and applied to MCF7 cells in the presence of 4 μg/ml polybrene (hexadimethrine bromide; Sigma-Aldrich) following 3 rounds of infection. Cells were subsequently selected with the appropriate antibiotic resistance using 0.5 μg/ml puromycin (Sigma).
as §3, §4
HEK 293T cells were seeded onto 162 cm^2 culture flasks (Corning, Sigma-Aldrich) until confluence (80%-90%). Cells were washed three times with PBS and cultured for 48 h in DMEM 0% FBS. Supernatants were collected and centrifuged at 1800 rpm for 5 min. Pellet was discarded and supernatants were filtered through a 0.22 μm filter and then the filtered supernatants were centrifuged at 100,000 g for 90 min at 4° C. (Optimal-90K ultracentrifuge) using 70 Ti rotor (Beckman Coulter). Supernatants were discarded and pellet-containing sEVs were washed with PBS and centrifuged at 100,000 g for 90 min at 4° C. The pellet with sEVs was resuspended in culture medium. Target cells (MCF7 or T47D cells) were treated with sEVs in the presence/absence of CDK 4/6 inhibitors for 48 h. 3 rounds of treatment were performed. For NTA Nanosight NS300 analysis and sEV protein and RNA content determination, a second ultracentrifugation with PBS was performed, and sEV pellet was resuspended in PBS. […]

A375 melanoma cells = assay: Colony formation assay; format: cell-based, human; settings: A375 Cx43 vs EV, 7 days, 250 nM Palbociclib, 500 nM Abemaciclib and Ribociclib
Protocol: as §1, §2

MCF7 cells [4] = assay: Senescence and apoptosis markers (western-blot, qPCR, SA-β-galactosidase); format: cell-based, human
Protocol: Cells were grown onto coverslips and fixed with 4% paraformaldehyde (PFA) for 10 min at room temperature (RT). Cells were then washed twice with PBS and permeabilized by incubation with 0.2% Triton X-100 (Sigma) in PBS for 10 min at RT. After a PBS wash, cells were blocked 30 min at RT using 1% BSA in PBS supplemented with 0.1% Tween-20 (PBST). Primary antibodies were diluted in 1% BSA-PBST and incubated overnight (anti-Cx43 (#C6219), Sigma-Aldrich 1:1000; anti-Tubulin (T9026). Cells were then washed with PBS and incubated with secondary antibodies for 1 h at RT. HRP-conjugated secondary antibodies used were anti-mouse (NA-931, Sigma-Aldrich) and anti-rabbit ([…], Sigma-Aldrich). Cells were washed with PBS and fixed with 4% paraformaldehyde for 15 mins at room temperature. […] (Senescence Cells Histochemical Staining Kit Ref […]; Sigma). Cells were imaged using a light microscope at 20× magnification and single representative images of each well were taken. Total RNA was isolated from cells using TRI Reagent® RT (Vitro Bio) according to manufacturer's protocol. 200 μL of chloroform were added to the tubes and samples were incubated for 10 min at 4° C. and then centrifugated at 14,000 g for 15 min at 4° C. After centrifugation, the aqueous phase (upper) are obtained and transferred to a new tube with 500 μL of isopropanol and samples were vortexed 15 sec. The tubes centrifugated at 14,000 g for 15 min at 4° C. Supernatant was discarded, and the RNA pellets were washed with 1 mL of 70% ethanol and centrifugated for 5 min at 7,000 g at 4° C. The supernatants were discarded, and RNA pellets were air dry. RNA was treated with DNase I, RNase free (Thermo Fisher Scientific) following manufacturer's protocol. RNA samples were quantified in a Nanodrop® ND-1000 (Thermo Fisher Scientific). 1 μg of RNA was used to synthesize complementary DNA (cDNA) with the SuperscriptTM IV VILOTM Master Mix (Invitrogen, Thermo Fisher Scientific) following manufacturer's protocol. cDNA samples are quantified in a Nanodrop® ND-1000 (Thermo Fisher Scientific) and resuspended in DNase/RNase/Protease-free water (Sigma-Aldrich). 5 μL of cDNA (1 μg) were mixed with 0.5 μL of primer mix (10 μM each primer), 10 μL of Applied BiosystemsTM PowerUPTM SYBRTM Green Master Mix (Applied Biosystems, Thermo Fisher Scientific) and complete with dH2O until 20 μL per well on LightCycler® 480 System (Roche). The program consisted on a first denaturing cycle of 10 min at 95° C. followed by 30-55 amplification cycles for 10 seconds (sec) at 95° C., 30 sec at 60° C. for annealing and 12 sec at 72° C. for extension. The primers used are listed below: […]

MCF7 cells [5] = assay: Hemichannel activity (ATP release) and gap-junction communication (parachute assay); format: cell-based, human; settings: MCF7 upon Cx43 restoration vs EV
[6] = test system: MCF7 cells overexpressing Cx43 (MCF7 Cx43); assay: IC50 calculation, Palbociclib dose-response, crystal violet; format: cell-based; settings: Homo sapiens, 168 h; MCF7 containing Cx43, 7 days treatment, absorbance 570 nm
Protocol: (§6) Rb positive cell lines MCF7 (breast cancer), T47D (breast cancer) and A375 (melanoma) were cultured in Dulbecco's modified Eagle's medium (DMEM) (Lonza) supplemented with 10% fetal bovine serum (FBS) (Gibco, Thermo Fisher Scientific) and 100 U/mL penicillin and 100 μg/ml streptomycin (Gibco, Thermo Fisher Scientific). HT29 (colon adenocarcinoma) was cultured in McCoy'S 5A medium (Sigma-Aldrich) supplemented with 10% FBS and 100 U/mL penicillin and 100 μg/ml streptomycin. Cells were maintained at 37° C. in 5% CO2 humidified incubator (SANYO CO2). The medium was changed every 2 days.
as §5, with “Cells were subsequently selected with the appropriate antibiotic resistance using 0.5 μg/ml puromycin (Sigma).” left out
(§7) IC50s were calculated using cell cultures from MCF7 (EV and Cx43) and T47D cells treated with different concentrations of the CDK4/6 inhibitor Palbociclib for 7 days. Cells were stained with crystal violet and cell number was assessed measuring the absorbance at 570 nm.

[7] = test system: MCF7 cells expressing the vector control (EV); assay: as above; format: cell-based; settings: Homo sapiens, 168 h; MCF7 EV (no Cx43), 7 days treatment, absorbance 570 nm
Protocol: as §6
as §5, with “Cells were subsequently selected with the appropriate antibiotic resistance using 0.5 μg/ml puromycin (Sigma).” left out
as §7

T47D cells [8] = assay: as above; format: cell-based; settings: Homo sapiens, 168 h; T47D (lower Cx43 than MCF7-Cx43), 7 days treatment
Protocol: as §6, with “days. IC50s were calculated using cell cultures from MCF7 (EV and Cx43) and T47D cells treated with different concentrations of the CDK4/6 inhibitor Palbociclib for 7 days. Cells were stained with crystal violet and cell number was assessed measuring the absorbance at 570 nm.” for “days.”

| Molecule | effect of Cx43 overexpression on inhibitor efficacy (reduction in proliferation) [1] | colony formation capacity (T47D cells [2]) | effect of Cx43 overexpression on the CDK4/6 inhibitor's effect on cell proliferation (MCF7 cells [3]; MCF7 Cx43 vs EV, 7 days, colony formation) | effect of Cx43 overexpression on inhibitor efficacy (reduction in proliferation) (A375 melanoma cells) | reduction in cell proliferation (MCF7 cells [3]) | cell proliferation / colony formation capacity (MCF7 cells [3]; MCF7, 7 days) | β-galactosidase activity (MCF7 cells [4]; MCF7, SA-β-galactosidase staining) | apoptotic markers Bax and Bcl2 protein (MCF7 cells [4]; MCF7, western-blot) | levels of senescent markers p21 and p53 (MCF7 cells [4]; MCF7, western-blot, vs vector control (EV)) | SASP factors IL6, IL8, MMP9 (qPCR) (MCF7 cells [4]; MCF7 overexpressing Cx43 vs EV) | hemichannels activity and gap-junction intercellular communication (MCF7 cells [5]) | IC50 [6] [nM] | IC50 [7] [nM] | IC50 (T47D cells [8]) [nM] |
| --- | --- | --- | --- | --- | --- | --- | --- | --- | --- | --- | --- | --- | --- | --- |
| CN(C)C(=O)c1cc2cnc(Nc3ccc(N4CCNCC4)cn3)nc2n1C1CCCC1 [Ribociclib] | increases the efficacy | effectively respond | enhances the effect | increases the efficacy |  |  |  |  |  |  |  |  |  |  |
| Cx43: connexin 43 overexpressed in tumour cells by retroviral vector or plasmid |  |  |  |  | 50% | induces proliferation arrest; also recorded: significantly reduced cell proliferation and colony formation capacity | increases β-galactosidase activity | increases the pro-apoptotic protein Bax and reduces Bcl2 | increases the levels of the senescent markers p21 and p53 | increases the secretion of different cytokines such as IL6, IL8 and MMP9 | increase in hemichannels activity and gap-junction intercellular communication |  |  |  |
| CC(=O)c1c(C)c2cnc(Nc3ccc(N4CCNCC4)cn3)nc2n(C2CCCC2)c1=O [Palbociclib] |  |  |  |  | around 40% |  |  |  |  |  |  | 66.8 | 282 | 121 |
